Data as given in ChEMBL document CHEMBL4477252, “Optimization of microtubule affinity regulating kinase (MARK) inhibitors with improved physical properties” (Bioorg Med Chem Lett, 2016).

How the values were obtained:
[1] = molecular target: Serine/threonine-protein kinase Chk2 (Homo sapiens, UniProt O96017); assay: Inhibition of full-length recombinant human His-tagged CHEK2 expressed in baculovirus expression system by Z'-LYTE assay
[2] = molecular target: Tyrosine-protein kinase JAK1 (Homo sapiens, UniProt P23458); assay: Inhibition of recombinant human GST-tagged cytoplasmic JAK1 (866 to 1154 residues) catalytic domain expressed in baculovirus expression system by Z'-LYTE assay
Tyrosine-protein kinase JAK1, sequence (P23458 whole entry, the tested form may be a part): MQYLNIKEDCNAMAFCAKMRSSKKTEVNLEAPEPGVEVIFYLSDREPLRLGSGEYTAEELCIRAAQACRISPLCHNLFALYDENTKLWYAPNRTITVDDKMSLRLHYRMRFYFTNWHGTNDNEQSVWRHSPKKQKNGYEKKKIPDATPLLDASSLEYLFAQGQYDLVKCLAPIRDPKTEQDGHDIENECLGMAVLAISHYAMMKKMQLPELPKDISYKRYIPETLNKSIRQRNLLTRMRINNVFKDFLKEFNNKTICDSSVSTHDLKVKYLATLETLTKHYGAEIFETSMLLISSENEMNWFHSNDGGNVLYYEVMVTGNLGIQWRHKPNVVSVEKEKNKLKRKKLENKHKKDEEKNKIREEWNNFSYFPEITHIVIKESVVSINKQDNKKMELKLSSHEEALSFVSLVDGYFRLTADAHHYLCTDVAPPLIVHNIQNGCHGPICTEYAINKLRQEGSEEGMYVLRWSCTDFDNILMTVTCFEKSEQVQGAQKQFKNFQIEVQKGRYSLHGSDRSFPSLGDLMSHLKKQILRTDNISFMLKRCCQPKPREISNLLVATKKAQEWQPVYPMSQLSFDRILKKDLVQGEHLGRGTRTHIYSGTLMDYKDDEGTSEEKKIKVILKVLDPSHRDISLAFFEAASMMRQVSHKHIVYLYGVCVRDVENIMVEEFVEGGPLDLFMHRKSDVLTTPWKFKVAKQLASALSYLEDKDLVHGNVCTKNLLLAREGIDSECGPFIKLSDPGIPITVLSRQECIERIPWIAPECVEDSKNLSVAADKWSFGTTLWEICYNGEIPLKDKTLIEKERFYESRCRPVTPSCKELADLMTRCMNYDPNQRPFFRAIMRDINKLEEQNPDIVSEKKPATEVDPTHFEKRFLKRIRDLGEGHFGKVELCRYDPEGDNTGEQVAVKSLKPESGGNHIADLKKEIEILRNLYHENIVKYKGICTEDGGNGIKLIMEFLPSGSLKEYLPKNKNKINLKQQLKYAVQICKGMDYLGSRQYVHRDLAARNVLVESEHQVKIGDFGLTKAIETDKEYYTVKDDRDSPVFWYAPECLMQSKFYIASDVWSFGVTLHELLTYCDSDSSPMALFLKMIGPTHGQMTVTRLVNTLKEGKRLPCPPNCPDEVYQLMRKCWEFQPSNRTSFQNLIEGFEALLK

[3] = molecular target: Serine/threonine-protein kinase Nek6 (Homo sapiens, UniProt Q9HC98); assay: Inhibition of full-length recombinant human GST-tagged NEK6 expressed in insect cells by Z'-LYTE assay
Serine/threonine-protein kinase Nek6, sequence (Q9HC98 whole entry): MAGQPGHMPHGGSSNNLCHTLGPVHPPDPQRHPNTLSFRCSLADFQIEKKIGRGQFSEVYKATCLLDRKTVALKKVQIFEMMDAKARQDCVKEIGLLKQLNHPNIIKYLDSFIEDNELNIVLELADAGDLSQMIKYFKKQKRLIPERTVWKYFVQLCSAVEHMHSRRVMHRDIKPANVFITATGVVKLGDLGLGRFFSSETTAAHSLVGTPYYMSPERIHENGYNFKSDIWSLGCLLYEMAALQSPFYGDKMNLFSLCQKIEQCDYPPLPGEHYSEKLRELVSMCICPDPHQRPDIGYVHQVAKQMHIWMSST

[4] = molecular target: Tyrosine-protein kinase BTK (Homo sapiens, UniProt Q06187); assay: Inhibition of full-length recombinant human His-tagged BTK expressed in baculovirus expression system by Z'-LYTE assay
Tyrosine-protein kinase BTK, sequence (Q06187 whole entry, the tested form may be a part): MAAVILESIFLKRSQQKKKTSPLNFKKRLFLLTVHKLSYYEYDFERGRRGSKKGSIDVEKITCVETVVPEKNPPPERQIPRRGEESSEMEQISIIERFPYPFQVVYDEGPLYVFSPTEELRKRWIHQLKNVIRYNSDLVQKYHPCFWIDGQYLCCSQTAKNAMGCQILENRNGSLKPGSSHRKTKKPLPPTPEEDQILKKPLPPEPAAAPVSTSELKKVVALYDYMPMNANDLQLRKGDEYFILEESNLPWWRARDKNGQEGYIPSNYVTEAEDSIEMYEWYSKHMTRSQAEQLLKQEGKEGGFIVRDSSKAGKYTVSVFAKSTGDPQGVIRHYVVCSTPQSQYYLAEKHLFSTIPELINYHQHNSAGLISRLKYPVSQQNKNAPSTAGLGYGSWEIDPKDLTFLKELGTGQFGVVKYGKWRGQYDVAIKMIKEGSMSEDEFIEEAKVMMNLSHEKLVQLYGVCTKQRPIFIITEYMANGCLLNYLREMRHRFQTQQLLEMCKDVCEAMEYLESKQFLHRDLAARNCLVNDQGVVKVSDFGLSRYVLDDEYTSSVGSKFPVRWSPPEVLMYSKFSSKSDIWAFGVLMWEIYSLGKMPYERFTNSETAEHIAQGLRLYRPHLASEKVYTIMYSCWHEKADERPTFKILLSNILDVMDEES

[5] = molecular target: T1, Serine/threonine-protein kinase TAO2 (Homo sapiens, UniProt Q9UL54); assay: Inhibition of recombinant human GST-tagged TAOK2 catalytic domain expressed in baculovirus expression system by Z'-LYTE assay
T1 sequence (Q9UL54 whole entry): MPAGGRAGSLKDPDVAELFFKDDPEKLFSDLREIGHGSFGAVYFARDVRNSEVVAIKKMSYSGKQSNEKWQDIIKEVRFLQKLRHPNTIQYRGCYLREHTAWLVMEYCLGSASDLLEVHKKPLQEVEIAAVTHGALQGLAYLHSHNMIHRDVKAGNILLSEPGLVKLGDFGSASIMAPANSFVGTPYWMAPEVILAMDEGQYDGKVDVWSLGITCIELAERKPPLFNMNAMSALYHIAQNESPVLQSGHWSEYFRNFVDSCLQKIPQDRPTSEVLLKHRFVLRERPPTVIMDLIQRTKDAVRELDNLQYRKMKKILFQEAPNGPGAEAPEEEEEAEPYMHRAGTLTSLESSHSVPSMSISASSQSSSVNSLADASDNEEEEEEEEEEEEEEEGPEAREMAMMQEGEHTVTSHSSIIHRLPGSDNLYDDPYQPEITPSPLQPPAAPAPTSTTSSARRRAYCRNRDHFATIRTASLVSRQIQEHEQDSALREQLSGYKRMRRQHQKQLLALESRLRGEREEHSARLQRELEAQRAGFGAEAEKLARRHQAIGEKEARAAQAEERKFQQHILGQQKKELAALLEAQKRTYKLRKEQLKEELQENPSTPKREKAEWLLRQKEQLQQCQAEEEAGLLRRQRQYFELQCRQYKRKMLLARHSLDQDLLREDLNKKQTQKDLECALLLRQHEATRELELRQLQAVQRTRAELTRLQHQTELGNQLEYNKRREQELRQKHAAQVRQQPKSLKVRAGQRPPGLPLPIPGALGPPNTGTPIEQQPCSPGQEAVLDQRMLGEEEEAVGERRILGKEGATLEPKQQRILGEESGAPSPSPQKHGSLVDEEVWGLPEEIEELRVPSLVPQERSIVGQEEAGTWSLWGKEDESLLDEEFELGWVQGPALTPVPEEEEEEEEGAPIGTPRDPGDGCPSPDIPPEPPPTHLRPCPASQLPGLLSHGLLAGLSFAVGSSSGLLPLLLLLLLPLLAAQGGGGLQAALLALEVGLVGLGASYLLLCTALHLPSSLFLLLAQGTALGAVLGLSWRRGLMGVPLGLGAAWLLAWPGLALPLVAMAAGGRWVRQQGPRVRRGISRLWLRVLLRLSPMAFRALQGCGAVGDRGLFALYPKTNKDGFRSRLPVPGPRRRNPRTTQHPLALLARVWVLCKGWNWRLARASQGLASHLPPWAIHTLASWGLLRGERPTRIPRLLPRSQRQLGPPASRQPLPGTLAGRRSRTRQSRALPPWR

[6] = molecular target: T2, Inhibitor of nuclear factor kappa-B kinase subunit beta (Homo sapiens, UniProt O14920); assay: Inhibition of full-length recombinant human GST-tagged IKK-beta expressed in baculovirus expression system by Z'-LYTE assay
T2 sequence (O14920 whole entry): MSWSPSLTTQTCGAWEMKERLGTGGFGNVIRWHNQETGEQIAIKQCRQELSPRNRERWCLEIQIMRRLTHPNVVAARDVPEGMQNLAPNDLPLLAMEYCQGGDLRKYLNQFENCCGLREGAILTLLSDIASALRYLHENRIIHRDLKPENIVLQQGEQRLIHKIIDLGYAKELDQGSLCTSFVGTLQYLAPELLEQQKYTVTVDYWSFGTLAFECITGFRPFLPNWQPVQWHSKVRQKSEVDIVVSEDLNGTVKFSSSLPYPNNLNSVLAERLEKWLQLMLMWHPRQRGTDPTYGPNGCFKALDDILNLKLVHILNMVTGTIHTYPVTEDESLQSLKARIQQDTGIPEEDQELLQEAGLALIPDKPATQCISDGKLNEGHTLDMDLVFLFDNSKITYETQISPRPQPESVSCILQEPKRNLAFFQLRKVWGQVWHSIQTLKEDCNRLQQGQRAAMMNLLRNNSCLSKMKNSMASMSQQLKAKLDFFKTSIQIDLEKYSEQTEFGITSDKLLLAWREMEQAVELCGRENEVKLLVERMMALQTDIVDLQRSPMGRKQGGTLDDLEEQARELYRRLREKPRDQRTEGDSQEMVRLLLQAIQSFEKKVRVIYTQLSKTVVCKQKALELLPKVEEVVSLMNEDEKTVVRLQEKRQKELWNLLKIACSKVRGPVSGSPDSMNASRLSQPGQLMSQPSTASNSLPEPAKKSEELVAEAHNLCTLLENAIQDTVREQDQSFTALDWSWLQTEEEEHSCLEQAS

[7] = molecular target: cAMP-dependent protein kinase catalytic subunit alpha (Homo sapiens, UniProt P17612); assay: Inhibition of recombinant human His-tagged PRKACA catalytic domain expressed in Escherichia coli by Z'-LYTE assay
[8] = molecular target: Dual specificity protein kinase CLK2 (Homo sapiens, UniProt P49760); assay: Inhibition of recombinant human GST-tagged CLK2 catalytic domain expressed in baculovirus expression system by Z'-LYTE assay
Dual specificity protein kinase CLK2, sequence (P49760 whole entry, the tested form may be a part): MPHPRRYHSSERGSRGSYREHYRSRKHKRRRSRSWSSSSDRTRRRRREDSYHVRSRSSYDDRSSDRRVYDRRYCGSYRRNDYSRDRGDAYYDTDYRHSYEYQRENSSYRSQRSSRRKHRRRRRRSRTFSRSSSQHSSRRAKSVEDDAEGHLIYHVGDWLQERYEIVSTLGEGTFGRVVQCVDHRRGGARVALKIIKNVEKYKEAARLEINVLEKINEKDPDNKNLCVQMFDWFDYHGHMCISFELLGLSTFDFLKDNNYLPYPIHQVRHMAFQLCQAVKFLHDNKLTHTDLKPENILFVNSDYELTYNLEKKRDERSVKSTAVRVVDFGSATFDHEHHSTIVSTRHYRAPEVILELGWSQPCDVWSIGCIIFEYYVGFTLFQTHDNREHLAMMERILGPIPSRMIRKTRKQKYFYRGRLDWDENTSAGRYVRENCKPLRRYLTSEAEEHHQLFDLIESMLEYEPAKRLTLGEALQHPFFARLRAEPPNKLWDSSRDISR

[9] = molecular target: Angiopoietin-1 receptor (Homo sapiens, UniProt Q02763); assay: Inhibition of recombinant human GST-tagged cytoplasmic TEK expressed in baculovirus expression system by Z'-LYTE assay
Angiopoietin-1 receptor, sequence (Q02763 whole entry): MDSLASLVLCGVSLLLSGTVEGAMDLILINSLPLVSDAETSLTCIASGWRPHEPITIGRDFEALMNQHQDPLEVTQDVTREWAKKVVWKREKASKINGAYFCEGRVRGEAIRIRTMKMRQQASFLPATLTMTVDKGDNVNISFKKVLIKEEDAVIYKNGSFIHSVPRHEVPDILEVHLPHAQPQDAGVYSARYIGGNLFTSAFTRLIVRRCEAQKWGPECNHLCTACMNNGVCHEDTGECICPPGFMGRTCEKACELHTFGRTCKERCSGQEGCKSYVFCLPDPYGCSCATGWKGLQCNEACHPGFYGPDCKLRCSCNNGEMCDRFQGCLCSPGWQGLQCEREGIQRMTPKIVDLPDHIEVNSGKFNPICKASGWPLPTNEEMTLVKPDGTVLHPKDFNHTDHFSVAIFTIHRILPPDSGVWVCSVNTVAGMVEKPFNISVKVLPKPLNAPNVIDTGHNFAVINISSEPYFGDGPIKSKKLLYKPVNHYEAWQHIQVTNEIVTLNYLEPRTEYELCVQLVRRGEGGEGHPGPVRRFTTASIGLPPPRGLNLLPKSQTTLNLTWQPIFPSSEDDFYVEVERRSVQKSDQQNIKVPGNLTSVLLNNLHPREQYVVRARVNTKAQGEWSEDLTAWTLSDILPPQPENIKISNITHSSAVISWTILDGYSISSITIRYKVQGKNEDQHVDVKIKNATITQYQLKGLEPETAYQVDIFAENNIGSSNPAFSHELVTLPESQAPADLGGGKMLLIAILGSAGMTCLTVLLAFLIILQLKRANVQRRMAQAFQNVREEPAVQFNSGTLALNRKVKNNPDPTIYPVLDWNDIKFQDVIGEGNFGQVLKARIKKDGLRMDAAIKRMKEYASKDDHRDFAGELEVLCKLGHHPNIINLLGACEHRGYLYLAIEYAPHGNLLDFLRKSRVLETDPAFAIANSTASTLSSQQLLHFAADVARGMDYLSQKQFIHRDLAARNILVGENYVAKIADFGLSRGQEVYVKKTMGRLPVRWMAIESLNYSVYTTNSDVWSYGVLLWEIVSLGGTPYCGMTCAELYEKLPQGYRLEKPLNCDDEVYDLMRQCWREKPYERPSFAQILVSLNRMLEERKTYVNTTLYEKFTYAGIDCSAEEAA

[10] = molecular target: T3, Testis-specific serine/threonine-protein kinase 1 (Homo sapiens, UniProt Q9BXA7); assay: Inhibition of full-length recombinant human His-tagged STK22D expressed in baculovirus expression system by Z'-LYTE assay
T3 sequence (Q9BXA7 whole entry): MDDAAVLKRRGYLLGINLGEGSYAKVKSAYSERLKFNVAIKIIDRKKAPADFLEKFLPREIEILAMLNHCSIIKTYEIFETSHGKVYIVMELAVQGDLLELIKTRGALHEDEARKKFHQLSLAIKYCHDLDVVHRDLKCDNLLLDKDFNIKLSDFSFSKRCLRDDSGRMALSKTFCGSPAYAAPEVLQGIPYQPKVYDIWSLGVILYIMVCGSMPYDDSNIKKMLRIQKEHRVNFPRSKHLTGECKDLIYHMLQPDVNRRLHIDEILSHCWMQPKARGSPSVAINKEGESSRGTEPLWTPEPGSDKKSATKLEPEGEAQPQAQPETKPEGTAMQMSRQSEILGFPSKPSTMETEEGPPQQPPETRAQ

Serine/threonine-protein kinase Chk2, sequence (O96017 whole entry, the tested form may be a part): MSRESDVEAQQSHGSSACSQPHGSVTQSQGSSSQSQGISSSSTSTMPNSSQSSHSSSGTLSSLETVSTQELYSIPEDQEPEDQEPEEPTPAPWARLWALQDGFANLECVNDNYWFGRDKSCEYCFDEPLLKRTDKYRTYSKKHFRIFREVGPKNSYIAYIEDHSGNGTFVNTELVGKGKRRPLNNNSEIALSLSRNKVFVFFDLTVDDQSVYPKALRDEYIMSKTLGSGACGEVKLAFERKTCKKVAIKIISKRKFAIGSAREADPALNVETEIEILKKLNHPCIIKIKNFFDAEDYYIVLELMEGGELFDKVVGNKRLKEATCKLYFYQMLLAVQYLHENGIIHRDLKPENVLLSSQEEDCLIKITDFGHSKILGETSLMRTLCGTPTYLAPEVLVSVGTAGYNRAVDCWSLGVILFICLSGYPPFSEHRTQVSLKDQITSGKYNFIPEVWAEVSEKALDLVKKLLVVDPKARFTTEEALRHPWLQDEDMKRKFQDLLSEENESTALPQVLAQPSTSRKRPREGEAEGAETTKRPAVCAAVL

SMILES | IC50 [1] [nM] | IC50 [2] [nM] | IC50 [3] [nM] | IC50 [4] [nM] | IC50 [5] [nM] | IC50 [6] [nM] | IC50 [7] [nM] | IC50 [8] [nM] | IC50 [9] [nM] | IC50 [10] [nM]
Cn1cc(-c2cnc3c(-c4csc(C(=O)NCC(F)(F)F)c4)cnn3c2)cn1 | 420 | 4200 | 5900 | 360 | 25000 | > 100000 | > 100000 | < 10 | 4700 | 20
Cc1sc(C(=O)N[C@@H]2[C@H](N)CCCC2(F)F)cc1-c1cnn2cc(Cl)cnc12 | 390 | 4300 | 17000 | 13000 | 11000 | 31000 | 3000 | 110 | > 100000 | < 10
O=C(NCC(F)(F)F)c1cc(-c2cnn3cc(-c4ccc(OCCN5CCCCC5)cc4)cnc23)cs1 | 450 | 2300 | 8800 | 290 | 2700 | 55000 | 15000 | < 10 | 4700 | < 10
Cn1cc(-c2cnc3c(-c4csc(C(=O)N[C@@H]5CCCC[C@@H]5N)c4)cnn3c2)cn1 (racemic) | 24 | 220 | 2600 | < 1 | 420 | > 10000 | 27 | 14 | 660 | < 1
